Laboratory results from the Kinase Knowledgebase extract (Sharma et al. 2016).

target: PIK3CA (human) (UniProt P42336); test: Cell-Based Assay; conditions: t47d
Sequence (P42336 whole entry, looked up): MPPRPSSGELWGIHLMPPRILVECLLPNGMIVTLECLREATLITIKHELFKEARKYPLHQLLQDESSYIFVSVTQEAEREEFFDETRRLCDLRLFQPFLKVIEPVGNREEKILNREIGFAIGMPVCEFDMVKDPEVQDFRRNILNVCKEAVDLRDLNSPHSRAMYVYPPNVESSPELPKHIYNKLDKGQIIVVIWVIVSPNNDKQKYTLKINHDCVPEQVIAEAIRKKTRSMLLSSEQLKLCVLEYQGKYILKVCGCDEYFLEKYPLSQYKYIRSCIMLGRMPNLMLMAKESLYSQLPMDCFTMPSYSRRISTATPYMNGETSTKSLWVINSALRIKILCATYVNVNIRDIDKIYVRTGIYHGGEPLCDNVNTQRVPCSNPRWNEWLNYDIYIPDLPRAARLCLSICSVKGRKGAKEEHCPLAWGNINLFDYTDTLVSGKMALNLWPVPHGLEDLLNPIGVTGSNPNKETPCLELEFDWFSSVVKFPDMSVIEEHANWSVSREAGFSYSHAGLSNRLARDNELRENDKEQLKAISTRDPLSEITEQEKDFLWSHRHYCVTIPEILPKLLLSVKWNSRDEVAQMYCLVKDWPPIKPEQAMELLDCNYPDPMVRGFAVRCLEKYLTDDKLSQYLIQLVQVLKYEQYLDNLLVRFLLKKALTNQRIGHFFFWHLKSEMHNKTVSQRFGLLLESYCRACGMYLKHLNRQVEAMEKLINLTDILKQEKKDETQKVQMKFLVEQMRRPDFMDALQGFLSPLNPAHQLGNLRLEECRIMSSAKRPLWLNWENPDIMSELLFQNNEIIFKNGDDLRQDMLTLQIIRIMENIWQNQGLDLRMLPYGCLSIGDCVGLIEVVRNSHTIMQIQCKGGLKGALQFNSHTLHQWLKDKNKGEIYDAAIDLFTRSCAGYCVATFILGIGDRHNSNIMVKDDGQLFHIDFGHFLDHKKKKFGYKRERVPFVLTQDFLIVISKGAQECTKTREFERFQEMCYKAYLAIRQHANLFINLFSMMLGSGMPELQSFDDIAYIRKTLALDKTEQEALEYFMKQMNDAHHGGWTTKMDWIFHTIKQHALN

| SMILES | IC50 |
| --- | --- |
| CNC(=O)CN1CCN(c2cnc3ccc(-c4ccc5oc(N)nc5c4)cc3n2)CC1 | 0.1 to 1 µM |
| Cc1nccn1C1CN(c2cnc3ccc(-c4ccc5oc(N)nc5c4)cc3n2)C1 | 0.1 to 1 µM |
| Nc1nc2cc(-c3ccc4ncc(N5CC(N6CCN(CCO)CC6)C5)nc4c3)ccc2o1 | 0.1 to 1 µM |
| Cc1cn(-c2cnc3ccc(-c4ccc5oc(N)nc5c4)cc3n2)cn1 | > 10 µM |
| Nc1nc2cc(-c3ccc4ncc(N5CC(C(=O)N6CCOCC6)C5)nc4c3)ccc2o1 | 0.1 to 1 µM |
| CC(C)(N)C(=O)N1CCN(c2cnc3ccc(-c4ccc5oc(N)nc5c4)cc3n2)CC1 | 0.1 to 1 µM |
| C[C@@H]1CN(C2CN(c3cnc4ccc(-c5ccc6oc(N)nc6c5)cc4n3)C2)CCN1 | 0.1 to 1 µM |
| Nc1nc2cc(-c3ccn4ncc(-c5ccncc5)c4c3)ccc2o1 | 0.1 to 1 µM |
| Nc1nc2cc(-c3ccc4ncc(N5CC(N6CCS(=O)(=O)CC6)C5)nc4c3)ccc2o1 | 0.1 to 1 µM |
| Nc1nc2cc(-c3ccc4ncc(N5CCNC(=O)C5)nc4c3)ccc2o1 | 0.1 to 1 µM |
| CN1CCC(Nc2ncnc3ccc(-c4ccc5oc(N)nc5c4)nc23)CC1 | 0.1 to 1 µM |
| CN1CCN(C2CN(C(=O)c3cnc4ccc(-c5ccc6oc(N)nc6c5)cn34)C2)CC1 | 0.1 to 1 µM |
| Nc1nc2cc(-c3ccc4ncc(N5CCN(C(=O)C6(N)CCC6)CC5)nc4c3)ccc2o1 | 0.1 to 1 µM |
| CS(=O)(=O)CCN1CCN(c2cnc3ccc(-c4ccc5oc(N)nc5c4)cc3n2)CC1 | 0.1 to 1 µM |
| Nc1nc2cc(-c3ccc4ncc(N5CCCC5)nc4c3)ccc2o1 | 0.1 to 1 µM |
| Nc1nc2cc(-c3ccc4nnc(C(=O)N5CCOCC5)n4c3)ccc2o1 | > 10 µM |
| Nc1nc2cc(-c3ccc4ncc(N5CCOCC5)nc4c3)ccc2s1 | 0.1 to 1 µM |
| CC1CN(c2cnc3ccc(-c4ccc5oc(N)nc5c4)cc3n2)CCN1 (stereo not given) | > 10 µM |
| CC(=O)Nc1cn2cc(-c3ccc4oc(N)nc4c3)ccc2n1 | 0.1 to 1 µM |
| CN1CCN(C(=O)C2CN(c3cnc4ccc(-c5ccc6oc(N)nc6c5)cc4n3)C2)CC1 | 0.1 to 1 µM |
| Nc1nc2cc(-c3ccc4ncc(-c5cnn(CCO)c5)nc4c3)ccc2o1 | 0.1 to 1 µM |
| Nc1noc2cc(-c3ccc4nccc(-c5ccncc5)c4c3)ccc12 | 0.1 to 1 µM |
| CC(=O)N1CCC(Nc2ncnc3ccc(-c4ccc5oc(N)nc5c4)nc23)CC1 | 0.1 to 1 µM |
| CN1CC(C(=O)N2CCC(Nc3ncnc4ccc(-c5ccc6oc(N)nc6c5)cc34)CC2)C1 | > 10 µM |
| Nc1nc2cc(-c3ccc4ncc(C(=O)NC5CC5)n4c3)ccc2o1 | 0.1 to 1 µM |

| SMILES | IC50 |
| --- | --- |
| Nc1nc2cc(-c3ccc4ncc(N5CCN(CC6CC6)CC5)nc4c3)ccc2o1 | 0.1 to 1 µM |
| Nc1nc2cc(-c3ccc4ncc(C(=O)NCCCN5CCCC5)n4c3)ccc2o1 | 0.1 to 1 µM |
| CCN(CC)CC(=O)N1CCN(c2cnc3ccc(-c4ccc5oc(N)nc5c4)cc3n2)CC1 | 0.1 to 1 µM |
| C[C@H]1CN(C(=O)C2CN(c3cnc4ccc(-c5ccc6oc(N)nc6c5)cc4n3)C2)CCN1 | 0.1 to 1 µM |
| Nc1nc2cc(-c3ccc4ncc(N5CC(N6CCOCC6)C5)nc4c3)ccc2o1 | 0.1 to 1 µM |
| Nc1nc2cc(-c3ccc4ncc(C(=O)NCCO)n4c3)ccc2o1 | 0.1 to 1 µM |
| CC(C)[C@@H](N)C(=O)N1CCN(c2cnc3ccc(-c4ccc5oc(N)nc5c4)cc3n2)CC1 | 0.1 to 1 µM |
| Nc1nc2cc(-c3ccc4ncc(N5CC(C(=O)N6CCN(C7CC7)CC6)C5)nc4c3)ccc2o1 | 0.1 to 1 µM |
| Nc1nc2cc(-c3ccc4ncc(N5CCN(CCO)CC5)nc4c3)ccc2o1 | 0.1 to 1 µM |
| Nc1nc2cc(-c3ccc4ncc(N5CCN(C(=O)[C@@H]6CCCN6)CC5)nc4c3)ccc2o1 | 0.1 to 1 µM |
| Nc1nc2cc(-c3ccc4ncnc(OC5CCOCC5)c4c3)ccc2o1 | 0.1 to 1 µM |
| CC(C)N1CCN(C(=O)C2CN(c3cnc4ccc(-c5ccc6oc(N)nc6c5)cc4n3)C2)CC1 | 0.1 to 1 µM |
| CN1CCN(C2CN(c3cnc4ccc(-c5ccc6oc(N)nc6c5)cc4n3)C2)CC1 | 0.1 to 1 µM |
| Nc1nc2cc(-c3ccc4ncc(C(=O)Nc5cccnc5)n4c3)ccc2o1 | > 10 µM |
| C[C@H](N)C(=O)N1CCN(c2cnc3ccc(-c4ccc5oc(N)nc5c4)cc3n2)CC1 | 0.1 to 1 µM |
| CNC(=O)N1CCN(c2cnc3ccc(-c4ccc5oc(N)nc5c4)cc3n2)CC1 | 0.1 to 1 µM |
| Nc1nc2cc(-c3ccc4ncc(NC5CCOCC5)nc4c3)ccc2o1 | 0.1 to 1 µM |
| CN1CCN(c2cnc3ccc(-c4ccc5oc(N)nc5c4)cc3n2)CC1=O | 0.1 to 1 µM |
| Nc1nc2cc(-c3ccc4ncc(N5CCC(N6CCOCC6)CC5)nc4c3)ccc2o1 | 0.1 to 1 µM |
| CN1CC(C(=O)N2CCN(c3cnc4ccc(-c5ccc6oc(N)nc6c5)cc4n3)CC2)C1 | 0.1 to 1 µM |
| Nc1nc2cc(-c3ccc4ncc(C(=O)N5CC[C@H](O)C5)n4c3)ccc2o1 | 0.1 to 1 µM |
| Nc1nc2cc(-c3ccc4ncc(N5CC(N6CCN(CC7CC7)CC6)C5)nc4c3)ccc2o1 | 0.1 to 1 µM |
| Nc1nc2cc(-c3ccc4ncc(N5CCN(C(=O)[C@H](N)CO)CC5)nc4c3)ccc2o1 | 0.1 to 1 µM |
| Nc1nc2cc(-c3ccc4ncc(N5CCCCC5)nc4c3)ccc2o1 | > 10 µM |
| CS(=O)(=O)N1CCN(C(=O)c2cnc3ccc(-c4ccc5oc(N)nc5c4)cn23)CC1 | 0.1 to 1 µM |
